Experimental data published in US20120016009A1, “Optimized Methods For Delivery Of DSRNA Targeting The PCSK9 Gene” (priority 2008, published 2012).
In the oligonucleotide strings, read from the 5' end, every base follows the letter of its sugar. An asterisk marks phosphorothioate; unmarked linkages are phosphodiester. Other units and linkages are bracketed, terminal groups are in braces. A string of capitals states the bases alone. d = 2'-deoxy (DNA); m = 2'-O-methyl; r = 2'-OH (RNA)

test system: PCSK9 mRNA; assay: PCSK9 siRNA screening in HepG2 cells (lipofectamine 2000 transfection, PCSK9 mRNA by Quantigene, normalized to GAP-DH); format: cell-based, human; details: not given
Method in brief: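 HepG2 cells, grown in MEM with 10% fetal calf serum, antibiotics, non-essential amino acids and sodium pyruvate at 37° C. and 5% CO2, were plated at 2.0×10^4 cells/well in 96-well plates and transfected directly with siRNA using lipofectamine 2000. After 24 hours, cells were lysed and PCSK9 mRNA was measured by Quantigene and normalized to GAP-DH mRNA.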

In the case of “AD-9731: PCSK9 siRNA (sense mUrGrGmUrGrArArGrAmUrGrArGmUrGrGmCrGrAdT*dT; antisense rUrCrGrCmCrArCrUmCrArUrCrUrUmCrArCmCrAdT*dT)”, the IC50 is reported as 320 pM.

same assay, conditions: 3 nM siRNA

In order of falling “Mean percent remaining mRNA transcript at siRNA concentration/in cell type 3 nM/HepG2” value:
1. AD-9646: PCSK9 siRNA (sense mCmUrGrGmUrGmCmUrArGmCmCmUmUrGmCrGmUmUdT*dT; antisense rArArCrGmCrArArGrGrCmUrArGmCrArCmCrArGdT*dT)  108%
2. AD-9731: PCSK9 siRNA (sense mUrGrGmUrGrArArGrAmUrGrArGmUrGrGmCrGrAdT*dT; antisense rUrCrGrCmCrArCrUmCrArUrCrUrUmCrArCmCrAdT*dT)  31%

same assay, conditions: 30 nM siRNA

In order of rising “Mean percent remaining mRNA transcript at siRNA concentration/in cell type 30 nM/HepG2” value:
1. AD-9731: PCSK9 siRNA (sense mUrGrGmUrGrArArGrAmUrGrArGmUrGrGmCrGrAdT*dT; antisense rUrCrGrCmCrArCrUmCrArUrCrUrUmCrArCmCrAdT*dT)  31%
2. AD-9555: PCSK9 siRNA (sense rGrUrCrArGrGrArGrCrCrGrGrGrArCrGrUrCrAdT*dT; antisense rUrGrArCrGrUrCrCrCrGrGrCrUrCrCrUrGrArCdT*dT)  34%
3. AD-9517: PCSK9 siRNA (sense rGrGrArGrGrUrGrUrArUrCrUrCrCrUrArGrArCdT*dT; antisense rGrUrCrUrArGrGrArGrArUrArCrArCrCrUrCrCdT*dT)  36%
4. AD-9608: PCSK9 siRNA (sense rUrGrCrUrArGrCrCrUrUrGrCrGrUrUrCrCrGrAdT*dT; antisense rUrCrGrGrArArCrGrCrArArGrGrCrUrArGrCrAdT*dT)  37%
5. AD-9596: PCSK9 siRNA (sense rGrArArGrArUrGrArGrUrGrGrCrGrArCrCrUrGdT*dT; antisense rCrArGrGrUrCrGrCrCrArCrUrCrArUrCrUrUrCdT*dT)  37%
6. AD-9643: PCSK9 siRNA (sense GGAGGuGuAucuccuAGAcTsT; antisense GUCuAGGAGAuAcACCUCCTsT; as printed in the source, key not given here)  40%
7. AD-9543: PCSK9 siRNA (sense rCrGrCrGrUrGrCrUrCrArArCrUrGrCrCrArArGdT*dT; antisense rCrUrUrGrGrCrArGrUrUrGrArGrCrArCrGrCrGdT*dT)  51%
8. AD-9523: PCSK9 siRNA (sense rCrArGrCrCrArGrGrArUrUrCrCrGrCrGrCrGrCdT*dT; antisense rGrCrGrCrGrCrGrGrArArUrCrCrUrGrGrCrUrGdT*dT)  55%
9. AD-9751: PCSK9 siRNA (sense mCmUrGrGmUrGrGrArGrGmUrGmUrAmUmCmUmCmCdT*dT; antisense rGrGrArGrAmUrAmCrArCrCrUrCmCrArCmCrArGdT*dT)  60%
10. AD-9623: PCSK9 siRNA (sense rGrUrCrArGrCrUrCrCrArGrGrCrGrGrUrCrCrUdT*dT; antisense rArGrGrArCrCrGrCrCrUrGrGrArGrCrUrGrArCdT*dT)  66%
11. AD-9670: PCSK9 siRNA (sense mUrGrArGrGrAmCmCrArGmCrGrGrGmUrAmCmUrGdT*dT; antisense mCrArGmUrArCrCrCrGrCrUrGrGrUrCrCrUmCrAdT*dT)  67%
12. AD-9627: PCSK9 siRNA (sense rArGrArGrArCrUrGrArUrCrCrArCrUrUrCrUrCdT*dT; antisense rGrArGrArArGrUrGrGrArUrCrArGrUrCrUrCrUdT*dT)  69%
13. AD-9685: PCSK9 siRNA (sense rGmUrGrAmCmCrAmCmCrGrGrGrArArAmUmCrGrAdT*dT; antisense rUrCrGrArUrUrUrCrCrCrGrGrUrGrGrUmCrArCdT*dT)  77%
14. AD-9661: PCSK9 siRNA (sense rGrArGmUrGrAmCmCrAmCmCrGrGrGrArArAmUmCdT*dT; antisense rGrArUrUrUrCrCrCrGrGrUrGrGrUmCrArCrUrCdT*dT)  83%
15. AD-9730: PCSK9 siRNA (sense mCmUmCrArGmCmCrArAmCmCmCrGmCmUmCmCrAmCdT*dT; antisense rGrUrGrGrArGrCrGrGrGrUrUrGrGrCrUrGrArGdT*dT)  85%
16. AD-9668: PCSK9 siRNA (sense rAmUmCrGrArGrGrGmCrArGrGrGmUmCrAmUrGrGdT*dT; antisense rCmCrArUrGrArCrCrCrUrGrCrCrCrUrCrGrArUdT*dT)  92%
17. AD-9516: PCSK9 siRNA (sense rUrGrUrArUrCrUrCrCrUrArGrArCrArCrCrArGdT*dT; antisense rCrUrGrGrUrGrUrCrUrArGrGrArGrArUrArCrAdT*dT)  94%
18. AD-9758: PCSK9 siRNA (sense mCrArAmCmUmUmUrGrGmCmCrGmCmUrGmUrGmUrGdT*dT; antisense mCrAmCrAmCrArGrCrGrGrCmCrArArArGrUrUrGdT*dT)  96%
19. AD-9646: PCSK9 siRNA (sense mCmUrGrGmUrGmCmUrArGmCmCmUmUrGmCrGmUmUdT*dT; antisense rArArCrGmCrArArGrGrCmUrArGmCrArCmCrArGdT*dT)  97%
20. AD-9701: PCSK9 siRNA (sense mCmCrGmCmUrGmCmCrGrGmCrArAmCmUmUmCmCrGdT*dT; antisense rCrGrGrArArGrUrUrGrCrCrGrGmCrArGrCrGrGdT*dT)  100%
21. AD-9642: PCSK9 siRNA (sense mUrGmUrAmUmCmUmCmCmUrArGrAmCrAmCmCrArGdT*dT; antisense rCrUrGrGrUrGrUrCmUrArGrGrArGrAmUrAmCrAdT*dT)  105%
22. AD-9654: PCSK9 siRNA (sense mCrGrGmUrAmCmCrGrGrGmCrGrGrAmUrGrArAmUdT*dT; antisense rArUrUmCrArUrCrCrGrCrCrCrGrGmUrArCrCrGdT*dT)  107%
23. AD-9710: PCSK9 siRNA (sense mCmCmCmUrGrGmCrGrGrGmUrGrGrGmUrAmCrArGdT*dT; antisense rCrUrGmUrArCrCmCrArCrCrCrGrCmCrArGrGrGdT*dT)  111%
24. AD-9601: PCSK9 siRNA (sense rArGrGrGrUrCrArUrGrGrUrCrArCrCrGrArCrUdT*dT; antisense rArGrUrCrGrGrUrGrArCrCrArUrGrArCrCrCrUdT*dT)  111%
25. AD-9528: PCSK9 siRNA (sense rCrGrGrUrArCrCrGrGrGrCrGrGrArUrGrArArUdT*dT; antisense rArUrUrCrArUrCrCrGrCrCrCrGrGrUrArCrCrGdT*dT)  113%
26. AD-9575: PCSK9 siRNA (sense rCrCrGrCrUrGrCrCrGrGrCrArArCrUrUrCrCrGdT*dT; antisense rCrGrGrArArGrUrUrGrCrCrGrGrCrArGrCrGrGdT*dT)  120%
27. AD-9612: PCSK9 siRNA (sense rArCrCrArCrCrGrGrGrArArArUrCrGrArGrGrGdT*dT; antisense rCrCrCrUrCrGrArUrUrUrCrCrCrGrGrUrGrGrUdT*dT)  122%
28. AD-9599: PCSK9 siRNA (sense rUrUrCrUrGrGrArUrGrGrCrArUrCrUrArGrCrCdT*dT; antisense rGrGrCrUrArGrArUrGrCrCrArUrCrCrArGrArAdT*dT)  139%

same assay, conditions: 100 nM siRNA

For “AD-9623: PCSK9 siRNA (sense rGrUrCrArGrCrUrCrCrArGrGrCrGrGrUrCrCrUdT*dT; antisense rArGrGrArCrCrGrCrCrUrGrGrArGrCrUrGrArCdT*dT)”, the “Mean percent remaining mRNA transcript at siRNA concentration/in cell type 100 nM/HepG2” value was 43%.
